Reference: publication PMC8067754, “Active Transport of Hepatotoxic Pyrrolizidine Alkaloids in HepaRG Cells” (International Journal of Molecular Sciences, 2021)
Several values for one entry are separate records, joined by “and”; a condition that tells them apart may be missing. Equal entries are not always repeated.

Test system: HepaRG cells
Assay: Time-dependent PA depletion and PANO formation in cell culture medium of HepaRG cells at 37 °C and 4 °C (LC-MS/MS)
Conditions: for PA content in cell culture medium, Mean [%]: 700 nM PA, percent of initial PA concentration; for PANO formation in cell culture medium: 700 nM parent PA, up to 24 h
Method: In order to measure time-dependent depletion of PA and PANO content in cell culture medium, cells were seeded at a density of 0.2 × 10^6 cells per well in a 6-well plate and cultivated as described in Section 4.2. After four weeks of cultivation, cells were adapted to serum-free medium and medium substituted with insulin, transferrin, selenium (ITS) serum extender (Capricorn Scientific, Ebsdorfergrund, Germany) 48 h prior to PA incubation for optimal LC-MS/MS measurements. […] Samples were taken after 2 h, 4 h, 8 h and 24 h.
Briefly, chromatographic separation of PA/PANO analytes was achieved on a 50 × 2.1 mm Kinetex ™ 2.6 μm CoreShell EVO C18 100 Å column protected by a SecurityGuard ™ ULTRA EVO C 18 2.1 mm guard column (both Phenomenex, Aschaffenburg, Germany) at a flow rate of 0.4 mL/min on a Shimadzu high performance liquid chromatography (HPLC) apparatus (LC-20AB, SIL-20AC HT, CTO-20AC, CBM-20A, Duisburg, Germany) coupled to an API4000 triple quadrupole MS (Sciex, Darmstadt, Germany). The following MS parameters were used for measurements in positive electrospray ionisation (ESI+) mode: ionisation voltage 2500 V, nebuliser gas 50 psi, heating gas 50 psi, curtain gas 30 psi, temperature 600 °C, collision gas level 7. The substance specific parameters are summarized in Kaltner et al. 2019 [79].

| SMILES | PA in medium, Mean [%] (cold, 0h) | PA in medium, single replicates (repl.) (cold, 0h) | PA in medium, single replicates (repl.) (cold, 2h) | PA in medium, single replicates (repl.) (cold, 4h) | PA in medium, Mean [%] (cold, 8h) | PA in medium, single replicates (repl.) (cold, 8h) | PA in medium, single replicates (repl.) (cold, 24h) | PA in medium, Mean [%] (warm, 0h) | PA in medium, single replicates (repl.) (warm, 0h) | PA in medium, Mean [%] (warm, 2h) | PA in medium, single replicates (repl.) (warm, 2h) | PA in medium, Mean [%] (warm, 4h) | PA in medium, single replicates (repl.) (warm, 4h) | PA in medium, Mean [%] (warm, 8h) | PA in medium, single replicates (repl.) (warm, 8h) | PA in medium, single replicates (repl.) (warm, 24h) | PANO formation in cell culture medium (HepaRG, 37 °C) | also measured |
| --- | --- | --- | --- | --- | --- | --- | --- | --- | --- | --- | --- | --- | --- | --- | --- | --- | --- | --- |
| CC(C)[C@](O)(C(=O)OCC1=CCN2CC[C@@H](O)[C@@H]12)[C@@H](C)O [Lycopsamine, lycopsamine] | 100% | 100% | 94.3912% and 95.7309% | 91.7949% and 100.05% | 96.74% | 94.6446% and 94.7892% and 95.0549% | 89.7134% and 94.6663% and 94.1752% and 95.3538% | 100% | 100% | 96.1576% | 89.3775% | 95.7481% | 96.6594% | 94.2429% | 86.6726% and 92.5981% | 92.6515% | – | PA content in cell culture medium, Mean [%] (HepaRG, 4 °C (cold), 0h): 115.66%; PA content in cell culture medium, Mean [%] (HepaRG, 4 °C (cold), 2h): 114.666%; PA content in cell culture medium, Mean [%] (HepaRG, 37 °C (warm), 2h): 110.255%; PA content in cell culture medium, Mean [%] (HepaRG, 37 °C (warm), 4h): 110.221%; reduction of PA content in the supernatant (HepaRG, 37 °C, after 24 h, 700 nM): only little reduction; PA in medium, Mean [%] (cold, 2h): 98.8899%; PA in medium, Mean [%] (cold, 4h): 96.1322% |
| C/C=C1/C[C@@H](C)[C@](O)(CO)C(=O)OCC2=CC[N@@+]3([O-])CC[C@@H](OC1=O)[C@@H]23 [retrorsine N-oxide] | – | – | – | – | – | – | – | – | – | – | – | – | – | – | – | – | increased with time | – |
| C/C=C1/C[C@@H](C)[C@@](C)(O)C(=O)OC/C2=C/CN(C)CC[C@@H](OC1=O)C2=O [Senkirkine, senkirkine] | 100% | 100% | 96.9078% | 94.744% and 91.9958% | 99.7692% | 96.8217% | 79.1115% | 100% | 100% | 96.897% | 86.8159% and 96.0701% | 92.4068% | 82.3204% and 92.3164% | 78.7411% | 72.1889% and 78.0729% and 85.9614% | 40.9466% and 44.2184% and 52.3933% | did not form PANOs | PA content in cell culture medium, Mean [%] (HepaRG, 4 °C (cold), 8h): 116.261%; PA content in cell culture medium, Mean [%] (HepaRG, 4 °C (cold), 24h): 100.349%; PA content in cell culture medium, Mean [%] (HepaRG, 37 °C (warm), 24h): 51.3803%; uptake and toxicity (grading) (HepaRG, Figure 2a, toxicity grading with ref 41): medium; PA in medium, Mean [%] (cold, 24h): 86.0777%; PA in medium, Mean [%] (warm, 24h): 45.8528% |
